Drawing on patent US8299048B2, “Hexahydrocyclopentyl[f]indazole sulfonamides and derivatives thereof as selective glucocorticoid receptor modulators” (Merck Sharp & Dohme Corp., priority 2008, dated 2012), this text covers Ki for 15 compounds.

In general, Ki refers to the dissociation constant of the complex between target and ligand, obtained from inhibition or displacement. The low end stands for a stronger hold on the target, the high end for a looser hold on the target.

In this assay the target is T1, glucocorticoid receptor (Homo sapiens, UniProt P04150).
T1 construct: endogenous in cells
T1 sequence (P04150 1-777): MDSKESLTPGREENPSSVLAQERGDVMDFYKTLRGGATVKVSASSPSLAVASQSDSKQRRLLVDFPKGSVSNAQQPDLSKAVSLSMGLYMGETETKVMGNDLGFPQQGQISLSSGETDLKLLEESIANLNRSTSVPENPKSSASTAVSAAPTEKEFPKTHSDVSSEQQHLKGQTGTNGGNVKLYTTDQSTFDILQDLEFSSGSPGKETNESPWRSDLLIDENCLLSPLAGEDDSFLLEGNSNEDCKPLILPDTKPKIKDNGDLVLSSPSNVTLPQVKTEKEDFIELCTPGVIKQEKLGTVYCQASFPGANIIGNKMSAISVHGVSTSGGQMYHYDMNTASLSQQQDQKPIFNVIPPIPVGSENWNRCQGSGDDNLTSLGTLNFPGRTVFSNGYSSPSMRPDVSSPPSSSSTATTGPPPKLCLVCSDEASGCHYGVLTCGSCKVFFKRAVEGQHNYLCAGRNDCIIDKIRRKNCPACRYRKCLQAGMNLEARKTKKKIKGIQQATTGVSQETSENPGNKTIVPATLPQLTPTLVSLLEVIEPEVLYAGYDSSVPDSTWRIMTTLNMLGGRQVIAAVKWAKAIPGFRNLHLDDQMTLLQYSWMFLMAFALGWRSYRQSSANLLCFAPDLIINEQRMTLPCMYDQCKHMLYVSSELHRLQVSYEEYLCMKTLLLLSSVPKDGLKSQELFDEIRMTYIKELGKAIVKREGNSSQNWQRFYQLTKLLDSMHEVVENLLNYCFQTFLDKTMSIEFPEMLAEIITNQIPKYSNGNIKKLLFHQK
The experiment in a line: Ligand binding assay (GR BIND). Put shortly: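 Displacement of tritiated dexamethasone (6 nM trace solution) from receptor in cell supernatant was measured after overnight incubation at 4 °C in molybdate-containing TEGM, pH 7.2, 2% ethanol. Hydroxylapatite pulled down the receptor–ligand complex for filter washing and scintillation counting, with dexamethasone as reference.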

`COC(=O)c1ccccc1S(=O)(=O)N(C[C@H]1CCC2=Cc3c(cnn3-c3ccc(F)cc3)C[C@@]21C)C[C@H](C)O` [Example 187, methyl 2-({{[(4αR,5S)-1-(4-fluorophenyl)-4α-methyl-1,4,4α,5,6,7-hexahydrocyclopenta[f]indazol-5-yl]methyl}[(2S)-2-hydroxypropyl]amino}sulfonyl)benzoate] returned a Ki of 2.5 nM. `COC(=O)c1ccccc1CS(=O)(=O)N(CCc1ccccc1F)C[C@H]1CCC2=Cc3c(cnn3-c3ccc(F)cc3)C[C@@]21C` [Example 188, methyl 2-{[([2-(2-fluorophenyl)ethyl]{[(4αR,5S)-1-(4-fluorophenyl)-4α-methyl-1,4,4α,5,6,7-hexahydrocyclopenta[f]indazol-5-yl]methyl}amino)sulfonyl]methyl}benzoate] yielded a Ki of 1.2 nM. On to `COC(=O)c1ccccc1S(=O)(=O)N(CCc1ccccc1F)C[C@H]1CCC2=Cc3c(cnn3-c3ccc(F)cc3)C[C@@]21C` [Example 189, methyl 2-[([2-(2-fluorophenyl)ethyl]{[(4αR,5S)-1-(4-fluorophenyl)-4α-methyl-1,4,4α,5,6,7-hexahydrocyclopenta[f]indazol-5-yl]methyl}amino)sulfonyl]benzoate], for which the inhibition constant Ki came out at 1.1 nM. The same measure for `C[C@]12Cc3cnn(-c4ccc(F)cc4)c3C=C1CC[C@@H]2CN(CCc1ccccc1F)S(=O)(=O)Cc1ccccc1C(N)=O` [Example 190, 2-{[([2-(2-fluorophenyl)ethyl]{[(4αR,5S)-1-(4-fluorophenyl)-4α-methyl-1,4,4α,5,6,7-hexahydrocyclopenta[f]indazol-5-yl]methyl}amino)sulfonyl]methyl}benzamide]: 1.5 nM; for `C[C@]12Cc3cnn(-c4ccc(F)cc4)c3C=C1CC[C@@H]2CN(CC1CCCO1)S(=O)(=O)c1ccc(C(N)=O)cc1` (stereo partly drawn) [Example 191, 4-{[{[(4αR,5S)-1-(4-fluorophenyl)-4α-methyl-1,4,4α,5,6,7-hexahydrocyclopenta[f]indazol-5-yl]methyl}(tetrahydrofuran-2-ylmethyl)amino]sulfonyl}benzamide]: 2 nM; for `C[C@]12Cc3cnn(-c4ccc(F)cc4)c3C=C1CC[C@@H]2CN(Cc1ccccc1F)S(=O)(=O)c1cccc(C(N)=O)c1` [Example 192, 3-[((2-fluorobenzyl){[(4αR,5S)-1-(4-fluorophenyl)-4α-methyl-1,4,4α,5,6,7-hexahydrocyclopenta[f]indazol-5-yl]methyl}amino)sulfonyl]benzamide]: 0.9 nM. For `C[C@]12Cc3cnn(-c4ccc(F)cc4)c3C=C1CC[C@@H]2CN(CCCc1ccccc1)S(=O)(=O)CC(F)(F)F` [Example 193, 2,2,2-trifluoro-N-{[(4αR,5S)-1-(4-fluorophenyl)-4α-methyl-1,4,4α,5,6,7-hexahydrocyclopenta[f]indazol-5-yl]methyl}-N-(3-phenylpropyl)ethanesulfonamide] the value was 1 nM.

On to `Cc1noc(C)c1S(=O)(=O)N(CCCc1ccccc1)C[C@H]1CCC2=Cc3c(cnn3-c3ccc(F)cc3)C[C@@]21C` [Example 194, N-{[(4αR,5S)-1-(4-fluorophenyl)-4α-methyl-1,4,4α,5,6,7-hexahydrocyclopenta[f]indazol-5-yl]methyl}-3,5-dimethyl-N-(3-phenylpropyl)isoxazole-4-sulfonamide], for which affinity was put at a Ki of 1.5 nM. For `C[C@]12Cc3cnn(-c4ccc(F)cc4)c3C=C1CC[C@@H]2CN(CCCc1ccccc1)S(=O)(=O)c1ccccc1F` [Example 195, 2-fluoro-N-{[(4αR,5S)-1-(4-fluorophenyl)-4α-methyl-1,4,4α,5,6,7-hexahydrocyclopenta[f]indazol-5-yl]methyl}-N-(3-phenylpropyl)benzenesulfonamide] the value was 0.6 nM; for `C[C@]12Cc3cnn(-c4ccc(F)cc4)c3C=C1CC[C@@H]2CN(CCc1ccccn1)S(=O)(=O)Cc1ccccc1C(N)=O` [Example 196, 2-({[{[(4αR,5S)-1-(4-fluorophenyl)-4α-methyl-1,4,4α,5,6,7-hexahydrocyclopenta[f]indazol-5-yl]methyl}(2-pyridin-2-ylethyl)amino]sulfonyl}methyl)benzamide], 2.7 nM; for `CC([C@H]1CCC2=Cc3c(cnn3-c3ccc(F)cc3)C[C@@]21C)N(CCc1ccccn1)S(=O)(=O)Cc1cccnc1` (stereo partly drawn) [Example 197, N-{1-[(4αR)-1-(4-fluorophenyl)-4α-methyl-1,4,4α,5,6,7-hexahydrocyclopenta[f]indazol-5-yl]ethyl}-1-pyridin-3-yl-N-(2-pyridin-2-ylethyl)methanesulfonamide], 4.4 nM. For `C[C@]12Cc3cnn(-c4ccc(F)cc4)c3C=C1CC[C@@H]2CN(CCO)S(=O)(=O)Cc1ccccc1C(N)=O` [Example 198, 2-({[{[(4αR,5S)-1-(4-fluorophenyl)-4α-methyl-1,4,4α,5,6,7-hexahydrocyclopenta[f]indazol-5-yl]methyl}(2-hydroxyethyl)amino]sulfonyl}methyl)benzamide] the value was 14.3 nM; for `CC(C)(O)CN(C[C@H]1CCC2=Cc3c(cnn3-c3ccc(F)cc3)C[C@@]21C)S(=O)(=O)c1ccccc1F` [Example 199, 2-fluoro-N-{[(4αR,5S)-1-(4-fluorophenyl)-4α-methyl-1,4,4α,5,6,7-hexahydrocyclopenta[f]indazol-5-yl]methyl}-N-(2-hydroxy-2-methylpropyl)benzenesulfonamide], 2.4 nM.

In turn, `C[C@]12Cc3cnn(-c4ccc(F)cc4)c3C=C1CC[C@@H]2CN(CC1(O)CC1)S(=O)(=O)c1ccccc1F` [Example 200, 2-fluoro-N-{[(4αR,5S)-1-(4-fluorophenyl)-4α-methyl-1,4,4α,5,6,7-hexahydrocyclopenta[f]indazol-5-yl]methyl}-N-[(1-hydroxycyclopropyl)methyl]benzenesulfonamide] displayed a Ki of 1.8 nM. For the compound `C[C@]12Cc3cnn(-c4ccc(F)cc4)c3C=C1CC[C@@H]2CN(CC1(O)CCCCC1)S(=O)(=O)c1ccccc1F` [Example 201, 2-fluoro-N-{[(4αR,5S)-1-(4-fluorophenyl)-4α-methyl-1,4,4α,5,6,7-hexahydrocyclopenta[f]indazol-5-yl]methyl}-N-[(1-hydroxycyclohexyl)methyl]benzenesulfonamide], the Ki was found to be 2.3 nM.
